Results: patent US20240277861A1, “ANTI-HEPATITIS B VIRUS AGENT TARGETING HOST FACTOR LIPG” (PUROTECH BIO, INC., priority 2021, published 2024)
Residues, ends and D or L forms follow the SMILES beside them.

How the values were obtained:
[1] = type: physicochemical
Excerpt: Therefore, peptides designed by reducing the number of amino acid residues in these two peptides to 8 (LIPH4-23s and LIPH4-NTNBs) were next chemically synthesized.

HBV = assay: Anti-HBV activities of LIPG-binding peptides in HepG2-NTCP-C4 cells (plasmid transfection); type: cell-based; conditions: vs control
Description: SMI TEST™ M EX-R&D (Medical & Biological Laboratories) was used to extract DNA from the samples. The extracted DNA was used as a template for quantitative PCR of HBV-DNA. For cccDNA detection, the extracted DNA was treated with T5 exonuclease (New England Biolabs), and the resulting DNA was used as a template for quantitative PCR. The T5 exonuclease treatment was performed at 37° C. for 30 minutes, and the DNase was later inactivated by heating at 80° C. for 15 minutes. The following primer set was used for detection.
Cells were infected with HBV derived from HepG2.2.15 at 20,000 genome equivalents/cell, and plasmids carrying different peptides were transfected individually into the cells 12 to 15 days post infection using Lipofectamine 3000. Samples were collected 3 to 5 days after transfection for evaluation of HBV-DNA, cccDNA, pgRNA, and the like.
For the clones positive in the pull-down experiment against full-length LIPG, the anti-HBV activities of the LIPG peptides were evaluated in HepG2-NTCP-C4 cells (FIG. 17). A secretion signal is added to a plasmid carrying each peptide. Therefore, the peptides are expected to be secreted from cells transfected with the plasmids and to bind to LIPG in the extracellular environment. […] Moreover, the copy number of cccDNA was reduced by almost all the clones.

[2] = biological target: T1, full-length form of LIPG (500 amino acids) (Homo sapiens, UniProt Q9Y5X9); assay: Pull-down assay of LIPH4 peptides against full-length LIPG; type: binding; conditions: culture supernatant of transfected 293T cells, compared with no bait
T1 construct: A pull-down assay was performed on the full-length form of LIPG (500 amino acids); made in house
T1 sequence (Q9Y5X9 21-500): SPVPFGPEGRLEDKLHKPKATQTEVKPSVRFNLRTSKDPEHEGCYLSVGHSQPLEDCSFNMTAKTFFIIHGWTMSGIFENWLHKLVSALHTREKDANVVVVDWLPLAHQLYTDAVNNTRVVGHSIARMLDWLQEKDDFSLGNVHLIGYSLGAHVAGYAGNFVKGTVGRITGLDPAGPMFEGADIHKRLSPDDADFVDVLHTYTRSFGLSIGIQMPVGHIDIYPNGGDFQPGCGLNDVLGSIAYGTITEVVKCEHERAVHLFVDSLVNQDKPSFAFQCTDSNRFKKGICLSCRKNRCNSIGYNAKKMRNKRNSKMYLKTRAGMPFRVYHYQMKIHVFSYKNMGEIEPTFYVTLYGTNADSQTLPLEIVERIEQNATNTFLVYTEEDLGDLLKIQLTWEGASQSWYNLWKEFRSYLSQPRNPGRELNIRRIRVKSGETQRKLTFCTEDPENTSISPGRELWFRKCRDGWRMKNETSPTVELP
Description: Human embryonic kidney 293T cells were cultured in DMEM (1.0 g/l glucose) with L-Gln and Sodium Pyruvate, liquid (Nacalai) supplemented with 10% FCS ([…]). Plating was performed in a 1:2 ratio on 6 cm dishes 24 hours before transfection. Lipofectamine 2000 in a volume of 20 μl was added to 500 μl of Opti-MEM 1 and allowed to stand for 5 minutes at room temperature, and the resulting mixture was gently added to a 6 cm dish containing a mixture of 500 μl of Opti-MEM 1 and 8 μg of a plasmid DNA. The resulting mixture was allowed to stand for 20 minutes at room temperature, and then added to a 6 cm dish containing 293T cells, and the cells were cultured at 37° C. in 5% CO2 for 4 to 6 day.
Resin (Streptavidin MagneSphere Paramagnetic Particles) (Promega) was washed using the MagneSphere Technology Magnetic Separation Stand (tweleve-position). The resin in a volume of 40 μl was added to each 1.5 ml tube, and after removal of the solution, washed three times with 1 ml of PBS. The resin was transferred to new tubes and mixed with 0.5 nmol (109 μl) of LIPG-BioFLAGHis or with 109 μl of PBS as a no bait control, and the resulting mixtures were agitated at 4° C. for 1 hour by rotation on a mini-disk rotor (BIO CRAFT) to allow binding. After removal of the solution, the resin was washed three times with 1 ml of TBST (containing 0.05% Tween 20). The resin was transferred to new tubes, blocked with 1 ml of ELISA BSA buffer (TBS, 0.05%, Tween 20, 1% BSA. Nacalai Tesque, Inc.) at 4° C. for 1 hour, and then washed three times with 1 ml of ELISA BSA buffer. The resin was transferred to new tubes, and 1000 μl of the culture supernatant containing expressed KIgk-LIPH4 was mixed with […] of the resin treated with LIPG-BioFLAGHis or without the bait, and the resulting mixtures were agitated at 4° C. for 1 hour and 30 minutes by rotation on a mini-disk rotor (BIO CRAFT) to allow binding. After removal of the solution, the resin was washed three times with […] of TBST (Tween 20, 0.1%), and the recovered resin was used for Western blotting.
Each resin was mixed with water and LDS sample buffer (4×), 0.2 mM DTT, heated at 70° C. for 10 minutes, and then subjected to SDS-PAGE. SDS-PAGE was performed using 4-12% Bis-Tris gel and NuPAGE MES-SDS electrophoresis buffer (Invitrogen) at 200 V and 400 mA for 35 minutes. After electrophoresis, transfer was performed using Mini Format, 0.2-μm PVDF, Single-application (BIO-RAD) Trans-Blot Turbo. The membrane was blocked with a Blocking One Buffer: TBST (1:9) solution and reacted with an anti-Flag-HRP (Sigma: A8592) diluted 2:3000 in a Blocking One Buffer: TBST (1:9) solution. Detection was performed using ECL (Enhanced ChemiLuminescence) on a ChemiDoc (BIO-RAD).
A pull-down assay was performed on the full-length form of LIPG (500 amino acids) with LIPH4 peptides (FIG. 16).

[3] = biological target: T2, N4BP1 (NEDD4 Binding Protein 1)
T2 chain: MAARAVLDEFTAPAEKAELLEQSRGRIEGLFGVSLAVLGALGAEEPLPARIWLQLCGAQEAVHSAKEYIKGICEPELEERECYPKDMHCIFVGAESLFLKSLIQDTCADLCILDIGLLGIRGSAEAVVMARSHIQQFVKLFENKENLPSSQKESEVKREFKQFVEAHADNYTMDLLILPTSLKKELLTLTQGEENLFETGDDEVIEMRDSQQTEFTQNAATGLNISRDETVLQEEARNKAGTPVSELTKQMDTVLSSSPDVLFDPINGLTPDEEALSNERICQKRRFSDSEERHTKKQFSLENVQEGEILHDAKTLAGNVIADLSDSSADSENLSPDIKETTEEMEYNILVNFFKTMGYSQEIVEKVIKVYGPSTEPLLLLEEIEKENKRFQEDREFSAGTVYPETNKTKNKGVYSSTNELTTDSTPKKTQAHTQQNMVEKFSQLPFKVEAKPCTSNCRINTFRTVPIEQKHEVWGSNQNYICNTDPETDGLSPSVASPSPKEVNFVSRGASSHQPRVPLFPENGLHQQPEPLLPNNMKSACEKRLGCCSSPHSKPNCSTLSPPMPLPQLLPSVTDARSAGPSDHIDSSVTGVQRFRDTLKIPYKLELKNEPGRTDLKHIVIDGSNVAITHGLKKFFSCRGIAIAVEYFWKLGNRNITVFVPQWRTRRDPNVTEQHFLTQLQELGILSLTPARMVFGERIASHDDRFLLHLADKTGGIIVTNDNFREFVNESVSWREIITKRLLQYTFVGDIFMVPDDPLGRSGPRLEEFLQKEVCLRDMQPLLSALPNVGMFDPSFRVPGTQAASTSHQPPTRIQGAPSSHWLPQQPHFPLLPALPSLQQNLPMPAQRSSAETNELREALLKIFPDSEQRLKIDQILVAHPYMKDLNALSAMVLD

## CC(C)C[C@H](N)C(=O)N[C@@H](CC(N)=O)C(=O)N[C@@H](CS)C(=O)N[C@@H](CCCNC(=N)N)C(=O)N[C@@H](CC(=O)O)C(=O)N[C@@H](CC(N)=O)C(=O)N[C@H](C(=O)N[C@@H](CCCNC(=N)N)C(=O)O)[C@@H](C)O [LIPH4-23s] (H-LNCRDNTR-OH; N-terminus and C-terminus assumed)
[1]
  solubility in PBS: soluble in PBS (water soluble)

## C[C@H](NC(=O)[C@@H](NC(=O)[C@H](CC(N)=O)NC(=O)[C@H](Cc1c[nH]cn1)NC(=O)[C@H](CCCNC(=N)N)NC(=O)[C@H](CS)NC(=O)[C@@H](N)CC(N)=O)[C@@H](C)O)C(=O)NCC(=O)O [LIPH4-NTNBs] (H-NCRHNTAG-OH; N-terminus and C-terminus assumed)
[1]
  solubility in PBS: soluble in PBS (water soluble)

## LNCRDNTRPVMSAMTC [KIgk-LIPH4-23]
HBV
  copy number of HBV-DNA: reduced the copy number of HBV-DNA to near zero
[2]
  binding to LIPG in pull-down assay: positive

B1: LIPG (500 aa, MW: 56.8 kDa) (protein)
chain: SPVPFGPEGRLEDKLHKPKATQTEVKPSVRFNLRTSKDPEHEGCYLSVGHSQPLEDCSFNMTAKTFFIIHGWTMSGIFENWLHKLVSALHTREKDANVVVVDWLPLAHQLYTDAVNNTRVVGHSIARMLDWLQEKDDFSLGNVHLIGYSLGAHVAGYAGNFVKGTVGRITGLDPAGPMFEGADIHKRLSPDDADFVDVLHTYTRSFGLSIGIQMPVGHIDIYPNGGDFQPGCGLNDVLGSIAYGTITEVVKCEHERAVHLFVDSLVNQDKPSFAFQCTDSNRFKKGICLSCRKNRCNSIGYNAKKMRNKRNSKMYLKTRAGMPFRVYHYQMKIHVFSYKNMGEIEPTFYVTLYGTNADSQTLPLEIVERIEQNATNTFLVYTEEDLGDLLKIQLTWEGASQSWYNLWKEFRSYLSQPRNPGRELNIRRIRVKSGETQRKLTFCTEDPENTSISPGRELWFRKCRDGWRMKNETSPTVELP
[3]
  degradation of a 1203-base HBV L protein RNA by N4BP1 (RNase activity), agarose gel: the degradation of the RNA was suppressed in the presence of LIPG by binding of LIPG to N4BP1
